On to `N#CC(CC(=O)O)(c1ccc(F)cc1)c1ccc(F)cc1`, for which the melting point lay in the range of 165 to 166 °C.

Compound `Cc1c(CC(=O)OCCO[N+](=O)[O-])cc(-c2ccc(S(C)(=O)=O)cc2)n1-c1ccc(F)cc1` gave a melting point of 110 to 112 °C.

With `CC(C)(C)C(O)Cn1c(=O)c(=NNc2ccccc2)c(=O)n(-c2ccccc2F)c2ccccc21` (centres undefined), the melting point was in the range of 217 to 218 °C.

In the case of `Cc1nc[nH]c1CSCCNC1=NC(=O)C(C)(C)N1`, the melting point was 232 to 236 °C.

`CCCCC[C@H]1CC[C@H](c2ccc(C#C[Si](C)(C)C)nn2)CC1`: the melting point is 118 to 119 °C.

Compound `Cc1cccc(C(=O)n2c3c(c4ccccc42)CC(C(=O)O)CC3)c1` (centres undefined) showed a melting point of 180 to 182 °C.

Turning to `COCCOCCOc1ccc2sc(C(=O)Nc3ccccc3N)cc2c1`, the melting point fell in the range of 167 to 168 °C.

With `O=c1c2ccccc2oc2c(CBr)cccc12`, the melting point lay within 191 to 192 °C.

`COc1cc(CC#Cc2c(C)nc(N)nc2N)cc(OC)c1OC`: the melting point is 164 to 166 °C.

`Oc1ccc2c(-c3noc4cc(O)ccc34)cccc2c1` displayed a melting point of 268 to 288 °C.

In turn, `Cc1ccc(S(=O)(=O)Nc2ccc(CCCC(=O)O)nc2)cc1` displayed a melting point of 154 to 155 °C.

Regarding `CN(Cc1ccccc1)C(=O)c1cnc2c([N+](=O)[O-])cccc2c1Cl`, the melting point lay within 120 to 121 °C.

`CCC#CCCOc1ccc(C=O)cc1OC`: the melting point was 80 to 81 °C.

For the compound `O=C1NCc2ccccc2N1C1CCNCC1`, the melting point is 153 to 155 °C.

The compound `CCc1ccc(C(=O)COc2ccc(CC3SC(=O)NC3=O)cc2)nc1` (centres undefined) came in with a melting point of 148 to 149 °C.

For `Cc1cc(-c2ccc(C(F)(F)F)cc2)cc(-c2cccc(-c3cccc(NS(=O)(=O)N4CCOCC4)c3)n2)n1`, the melting point was 191 °C.

The compound `Nc1nc(COCc2ccccc2)nc2nccnc12` showed a melting point of 112 to 114 °C.

As to `CC(=O)N[C@@H](CCC(=O)O)C(N)=O`, the melting point fell in the range of 85 to 87 °C.

Regarding `COc1cc(OC)c(C2=NC(NC(=O)c3cc4ccccc4[nH]3)C(=O)N(C)c3ccccc32)c(OC)c1` (centres undefined), the melting point was determined as 297 °C.

Compound `COc1cc(Sc2ccncc2)cc2ccoc12` yielded a melting point of 81 to 83 °C.

Compound `COC(=O)c1c(N)ncn1-c1c(C)cccc1C` registered a melting point of 154 to 156 °C.

For `CNC=C1C(=S)C(C)(C)OC1(C)C`, the melting point lay within 115 to 117 °C.

As to `COc1ccc(Nc2cc(-c3ccncc3)nc3ccccc23)cc1Cl`, the melting point is 280 to 282 °C.

Compound `Cc1ccccc1CC(=NC#N)NC(NC(=O)Cc1ccc2c(c1)OCO2)C(C)(C)C` (centres undefined) displayed a melting point of 167 to 169 °C.

Consider `CS(=O)(=O)N1CCC(NC(=O)Nc2ccc(F)cc2)CC1`, for which the melting point fell in the range of 186 to 188 °C.

`Ic1cccc(OCCCCCCOc2c(I)cc(I)cc2I)c1` registered a melting point of 65 to 66 °C.

`C=C(C)C(=O)OCCOc1ccc(OCCOC(=O)c2ccc(O)c(Cl)c2)cc1` yielded a melting point of 105 to 106 °C.

In turn, `CNC(=O)C(=NOC)c1ccccc1Oc1cccc(-c2ccc(Cl)cc2)c1` showed a melting point of 118 to 121 °C.

Consider `CC(=O)N1CCc2c(sc(CCN3CCC(c4noc5cc(F)ccc45)CC3)c2Br)C1`, for which the melting point was 114 to 117 °C.

As for `C[C@]1(N2C(=O)c3cccc(OCc4ccc(CN5CCOCC5)cc4)c3C2=O)CCC(=O)NC1=O`, the melting point was in the range of 178 to 180 °C.

Compound `C=Cc1ccc(Nc2nc(Cl)nc(OC)n2)cc1` had a melting point of 118 to 122 °C.

`CC(C)=C1C(=O)N(c2cccc3c(N)cccc23)C(=O)/C1=C(\C)c1cc(-c2ccccc2)sc1C` returned a melting point of 155 to 158 °C.

Regarding `O=C(NCc1ccc(Cl)cc1)c1cnc2sc(CCCO)cc2c1O`, the melting point was in the range of 185 to 186 °C.

`O=C(O)CCc1cccc(Oc2cccc(-c3nnc(Nc4ccc(Cl)c(Cl)c4)s3)c2)c1`: the melting point lay in the range of 194 to 196 °C.

In turn, `Cc1cc2ncc(-c3cccc(-c4ccccc4C#N)c3)n2cn1` displayed a melting point of 119 °C.

For `Cc1cccc2c(=O)n(S(=O)(=O)c3ccc(Cl)cc3)c(=O)[nH]c12`, the melting point is 221 to 225 °C.

On to `COC(=O)c1sc2cccc(Cl)c2c1Br`, for which the melting point lay in the range of 120 to 122 °C.

`CC(C)c1c(Br)ccc(N)c1C#N` registered a melting point of 82 to 85 °C.

As for `CC(N1CCN(C=O)CC1)C(O)(Cn1cncn1)c1ccc(F)cc1F` (centres undefined), the melting point lay within 118 to 120 °C.

Take `Cc1ccc(S(=O)(=O)N=c2[nH]c3ccccc3s2)cc1`: the melting point lay within 246 to 249 °C.

`CN1CCCCC1C(NC(=O)Nc1ccc2[nH]ncc2c1)c1cc(F)cc(Cl)c1` (centres undefined): the melting point was 192 °C.

On to `CCCC[C@]1(CC)CS(=O)(=O)c2cc(O)c(O)cc2[C@@H](c2ccccc2)N1`, for which the melting point was 117 to 118 °C.

In the case of `O=c1[nH]cnc2c(Br)c(Cl)sc12`, the melting point is more than 280 °C.

`CCC12CCC3c4ccc(OC)cc4CCC3C1CC(=CN(C)C)C2=O` (centres undefined) registered a melting point of 157 to 159 °C.

`CC(C)n1nc(-c2sc(NC(=O)c3ccc(CNCCCN(C)C)cc3)nc2-c2ccccc2)ccc1=O` yielded a melting point of 108 to 110 °C.

Regarding `COC(=O)Nc1cc(Oc2ccc3c(C(=O)Nc4ccc(CN5CCNCC5)c(C(F)(F)F)c4)cccc3c2)ncn1`, the melting point is 138 to 148 °C.

Compound `CCC(C)CNNC(=O)c1cc(N)cc(C(=O)NNCC(C)CC)c1` (centres undefined) returned a melting point of 162 to 163 °C.

`O[C@@H](CNCCOc1ccc2oc(-c3noc(C(F)(F)F)n3)cc2c1)COc1ccccc1F` gave a melting point of 117 to 119 °C.

Take `COc1ccc(S(=O)(=O)N(CC(N)=O)c2ccc(N(C)C)cc2Cc2ccccc2Cl)cc1OC`: the melting point was found to be 130 °C.

Compound `Cc1ccc(C(=O)Nc2ccc(-n3ccnc3C)cc2C(F)(F)F)cc1Nc1nccc(-c2cccnc2)n1` yielded a melting point of 154 to 163 °C.

`CN(N)c1ccc(-c2ccccc2)nn1` displayed a melting point of 145 to 147 °C.

In the case of `O=C(O)[C@@H](CCN1C(=O)c2ccccc2C1=O)Oc1c(Br)cc(-c2c(Br)ccc3sc4ccccc4c23)cc1Br`, the melting point lay in the range of 130 to 132 °C.

Compound `Nc1nc(CCCO)nc2c1ncn2C1OC(CO)C(O)C1S` (centres undefined) gave a melting point of 117 to 119 °C.

`COc1ccc(CC(=O)N2CCC[C@H]2C(=O)O)cc1` yielded a melting point of 138 to 139 °C.

`CC(=O)OC[C@H]1O[C@@H]2[C@@H](Sc3ccccc3N2C(=O)c2ccccc2)[C@@H](OC(C)=O)[C@@H]1OC(C)=O` displayed a melting point of 154 to 155 °C.

`CN=C(NC#N)N1CCc2nc(N)sc2C1` registered a melting point of 231 to 234 °C.

Regarding `CC(C)(C)OC(=O)Nc1ccc(C#Cc2ccccc2Cl)cc1N`, the melting point was in the range of 120 to 122 °C.

On to `CCN(CC)c1ccc(-n2c(CC(=O)O)c(C(=O)O)c3cc(Oc4ccc(Cl)cc4)ccc32)cc1`, for which the melting point turned out to be 210 °C.

Take `Clc1ccccc1C(Cl)(c1ccccc1)c1ccccc1`: the melting point stood at 131 °C.

For `COc1ccc2c(c1)-c1c(OC)ccc3c1C(C2=O)N(C)CC3` (centres undefined), the melting point was in the range of 162 to 164 °C.

Compound `O=C1Nc2cccnc2N(C(=O)CN2CCC(CCCN3CCCCC3)CC2)c2ccccc21` had a melting point of 202 to 203 °C.

The compound `C=CCNc1nc(NC(=O)NCCCC)c2scc(C)c2n1` came in with a melting point of 141 °C.

Regarding `O=c1[nH]c2cccnc2n1-c1ccccc1`, the melting point is 233 to 235 °C.

`CC1=C(C)N(C(=O)Oc2ccccc2)C(c2ccc(C)cc2)C=C1` (centres undefined) showed a melting point of 106 °C.

As to `Cc1c(Cl)nn(-c2ccc(Cl)cc2)c1Cl`, the melting point fell in the range of 90 to 91.5 °C.

In turn, `CCN(CC)C(=O)COc1ccc(C(=O)CBr)cc1OC` registered a melting point of 101 to 103 °C.

Consider `CC1(C)COCC(C)(C)N1N=O`, for which the melting point is 47 °C.

The compound `O=Cc1cc([N+](=O)[O-])c(Cl)cc1Cl` yielded a melting point of 61 to 63 °C.

As for `CCOC(=O)c1cnc(Nc2ccccc2)[nH]c1=O`, the melting point is 267 to 269 °C.

Compound `CCOC(OCC)c1cc(-n2c(=O)cc(C(F)(F)F)n(N)c2=O)ccc1Cl` yielded a melting point of 80 to 81 °C.

`O=S(=O)(c1ccc(Br)cc1)N1CCN(CC2CCN(c3ccncc3)CC2)CC1` returned a melting point of 179 to 180 °C.

As to `CC(C)(Oc1ccc(CCCOc2ccc(-c3ccccc3)cc2)cc1)C(=O)O`, the melting point was in the range of 130 to 133 °C.

The compound `Cc1cc(Oc2cccc(C#CC(C)N(O)C(N)=O)c2)ccc1F` (centres undefined) had a melting point of 141 to 142 °C.

`CCN(CC)CCNC(=O)c1cc(Cl)c(NC(=O)c2ccc3ccccc3c2)cc1OC` had a melting point of 173 to 174 °C.

`Cc1ccc([N+](=O)[O-])cc1CNC(=O)c1ccccc1` registered a melting point of 134 to 137 °C.

Compound `CSc1nnc(-c2ccc(F)cc2)c(-c2ccc(F)cc2)n1` returned a melting point of 132 to 135 °C.

`O=C(C1=CCCCC1)c1cc(-c2ccccc2)no1` had a melting point of 70 to 71 °C.

As to `O=C1CCc2ccc(O)cc2O1`, the melting point lay in the range of 133 to 136 °C.

For `Nc1nc(N)c2cc(S(=O)(=O)c3ccc4ccccc4c3)ccc2n1`, the melting point lay in the range of 300 to 302 °C.

`Cc1cccc(-c2sc(N)nc2-c2ccnc(-c3ccc(N4CCOCC4)cc3)c2)n1` displayed a melting point of 246 °C.

As to `Nc1c(C(F)(F)F)cc2[nH]c(=O)c(=O)[nH]c2c1Cl`, the melting point is more than 360 °C.

Take `O=C(Nc1ccc(-c2cnc(-c3ccc(NC(=O)c4c(F)c(F)c(F)c(F)c4F)cc3)[nH]2)cc1)c1cccnc1`: the melting point fell in the range of 265 to 266 °C.

Consider `COc1ccc(N2C(=O)C(C)(C)N(c3ccc(Oc4ccccc4)cc3)C2=S)cc1`, for which the melting point amounted to 144 °C.

As to `CCn1c(=O)c2c(nc(/C=C/c3cccc(OC)c3)n2C)n(CC)c1=O`, the melting point was in the range of 153 to 155 °C.

Turning to `CC1(C)OC(=O)Nc2ccc(-c3cc(CC#N)ccc3F)cc21`, the melting point was 184 to 187 °C.

`COC(=O)c1cc2cc(S(N)(=O)=O)sc2s1` came in with a melting point of 219 to 220 °C.

Compound `OC1(C#Cc2ccc(OCCOc3ccccc3)cc2)CN2CCC1CC2` (centres undefined) registered a melting point of 207 to 208 °C.

With `CCOC(=O)C(CC(=O)c1ccccc1C(F)(F)F)(NC(C)=O)C(=O)OCC`, the melting point lay within 104 to 105 °C.

As to `CC(CCOc1c(-c2ccc(S(C)(=O)=O)cc2)cnn(-c2ccc(F)c(F)c2)c1=O)C(F)(F)F` (centres undefined), the melting point fell in the range of 126 to 128 °C.

As usually defined, the melting point is the temperature, or range, at which the solid turns liquid.
